# Experimental data reported in patent US11077087B2, “Compositions comprising dihydroquercetin for use in methods for treating herpes” (BIONOOX SUISSE SA, priority 2015, dated 2021).
# Key:
# Type in all cases: cell-based
# [1] = tested on: human mast cells; experiment: Mast cell degranulation (IgE/anti-IgE), beta-hexosaminidase release
# Description: Pure populations of human mast cells (HMC) are obtained by long-term culture of human normal hematopoietic progenitors (CD34^+ cells) in the continuous presence of Stem Cell Factor (SCF). Sources of these CD34^+ cells are mainly bone marrow, cord blood or peripheral blood. Usually, mononuclear cells from bone marrow and cord blood contain 0.5-1% of CD34^+ cells, whereas peripheral blood contains less than 0.1% of CD34^+ cells. Hematopoietic progenitor cells can be rapidly and efficiently enriched to a purity of about 85-98% using positive selection of magnetically labeled CD34^+ cells. Hematopoietic progenitor cells are then magnetically labeled using MACS CD34 MicroBeads. The magnetically labeled cells are enriched on positive selection columns in the magnetic field. Mononuclear cells from peripheral blood (PBMC), cord blood, or bone marrow may otherwise be obtained by density gradient centrifugation over Ficoll Paque®. Fractionation methods for producing mast cells are described in the art (see for instance Arock et al., 2008, Methods in Molecular biology 415: 241-254). Mast cell degranulation was induced by sequential treatment of mast cell by IgE, then by anti-IgE antibodies. Degranulation was subsequently measured by evaluating the release of beta-hexosaminidase, 1 h after IgE stimulation (see FIG. 4).
# [2] = tested on: neutrophils; experiment: ROS production by neutrophils triggered by PMA, luminol chemiluminescence; details: for Integral (total chemiluminescence counts, total ROS production) / Peak max / Slope max / T. Slope max / T. half (rise) / T. max (peak): PMA 100 ng/mL; for Integral (total chemiluminescence counts, total ROS production): 22.21 min
# Description: (§1) PMA (12-O-tetradecanoyl-phorbol-13-acetate, Consolidated Midland Corp., Brewster, N.Y.) is dissolved at 1 mg/ml in dimethyl sulfoxide. This stock solution maintains full biological activity for several months when stored at […] in the dark. Unless otherwise specified, polymorphonuclear neutrophils (PMN), 10^6/ml in BS-H, are put into plastic centrifuge tubes (Falcon No. 2070, Falcon Labware, Div. of Becton, Dickinson & Co., Oxnard, Calif.) and brought to 37° C. PMA stock solution is added to provide a final concentration of 100 ng/ml of PMA. “Resting” (control) cells are exposed to […] dimethyl sulfoxide. A chemiluminescence (using luminol) method is used to measure Reactive Oxygen species (ROS) production (Dang et al, J Clin Invest. 2006, 116(7):2033-43; Boussetta et al, Blood. 2010, 116(26):5795-802). Superoxide production is measured by the superoxide dismutase (SOD)-inhibitable ferricytochrome c reduction assay.
# Neutrophils are triggered by PMA (100 ng/mL) in the presence of different concentrations of DHQ (0, 1, 10 and 100 μM) at 37° C. in Hanks buffer containing 10 μM luminol and chemiluminescence is measured by a chemiluminometer. Total chemiluminescence counts during 22.21 min. (integrals) corresponding to total ROS production are determined.
# [3] = tested on: polymorphonuclear neutrophils; experiment: Superoxide production by neutrophils, SOD-inhibitable ferricytochrome c reduction assay
# Description: as §1
# When activated by opsonized bacteria, zymozan, fMLP (Formyl-Methionyl-Leucyl-Phenylalanine) or PMA (phorbol myristate acetate), neutrophils undergo an oxidative burst resulting in the production of superoxide anion and subsequent hydrogen peroxide. The oxidative burst is mainly mediated by the NADPH oxidase activation, enzyme responsible of the superoxide anion production. […] This effect results either from the direct anion superoxide scavenging or from the inhibition of NADPH oxidase activation.
# [4] = tested on: polymorphonuclear neutrophils; experiment: Oxygen consumption of polymorphonuclear neutrophils triggered by PMA and fMLP; details: data not shown
# [5] = tested on: neutrophils; experiment: ROS production by neutrophils triggered by fMLP, luminol chemiluminescence; details: for Integral (total chemiluminescence counts, total ROS production): 22.21 min
# Description: Neutrophils (5×10^5) are suspended in 0.5 mL of Hanks balanced salt solution containing 10 μM luminol at 37° C. The cells are then stimulated with 10^−6M fMLP (N-formylmethionyl-leucyl-phenylalanine). Chemiluminescence is recorded with a luminometer (Berthold-Biolumat LB937). Similarly, neutrophils were triggered by fMLP (10^−6 M) in the presence of different concentrations of DHQ (0, 1, 10 and 100 μM) at 37° C. in Hanks buffer containing 10 μM luminol and chemiluminescence was measured by a chemiluminometer. Total chemiluminescence counts during 22.21 min. (integrals) corresponding to total ROS production were determined.
# [6] = tested on: NIH-3T3 fibroblasts; experiment: NIH-3T3 fibroblast proliferation, MTT assay; details: increasing DHQ concentrations
# Description: The NIH 3T3 cell line was purchased from the ATCC (CRL1658). Cell lines are grown in Dulbecco's Modified Eagles' Medium (DMEM) supplemented with 10% heat inactivated newborn calf serum, 100 UI/mL penicillin and 100 μg/mL streptomycin (all from Gibco BRL) at 37° C. in a humidified 5% CO2 atmosphere. DHQ is dissolved in DMSO. Cells are cultured during 48 hours in the absence or in the presence of various DHQ concentrations. NIH-3T3 fibroblasts are immortalized cells which mimic the inflammatory phenotype assessed by the abundance of actin stress fibers and high contractility.
# The effects of DHQ on the growth of NIH-3T3 cells are determined using the 3-(4,5-dimetthylthiazol-2-yl)-2,5-diphenyltetrazolium bromide (MTT) assay. Briefly, cells are plated on 96 well plates at 4,000 cells per well with increasing DHQ concentrations. After 72 hours of incubation with the drug, medium is removed and replaced by complete medium+MTT (10% v/v). After 3 hours of incubation, formazan crystals are dissolved in buffer containing 10% SDS (w/v, Bio-Rad), 50% Dimethyl formamide (Sigma), pH 4.7. Absorbance of reduced formazan is measured at 580 nm. Results are presented in FIG. 5: 100% of MTT reduced is attributed to the measure performed in absence of DHQ.
# [7] = fMLP 10^−6 M, DHQ 1 μM (inferred)
# [8] = fMLP 10^−6 M, DHQ 10 μM (inferred)
# [9] = fMLP 10^−6 M, DHQ 100 μM (inferred)
structure (smiles),measurement,setting,value
O=C1c2c(O)cc(O)cc2OC(c2ccc(O)c(O)c2)C1O (stereo not shown) [DHQ],inhibition at 10 µM,"[1]; Homo sapiens, Mast cell, DHQ 10 μM, beta-hexosaminidase release 1 h after IgE stimulation",≤ 50%
same,inhibition at 100 µM,"[1]; Homo sapiens, Mast cell, DHQ 100 μM, beta-hexosaminidase release 1 h after IgE stimulation",80%
same,inhibitory activity on degranulation compared with reference molecules,[1]; versus kinase inhibitors and chromoglycate,superior to kinase inhibitors and chromoglycate
same,inhibition at 1 µM,"[2]; Neutrophil, neutrophils activated by PMA, DHQ 1 μM",~80%
same,"Integral (total chemiluminescence counts, total ROS production)","[2]; DHQ 1 μM (line not labelled, concentration inferred)",4.509E+08
same,"Integral (total chemiluminescence counts, total ROS production)","[2]; DHQ 10 μM (line not labelled, concentration inferred)",2.0172E+08
same,"Integral (total chemiluminescence counts, total ROS production)","[2]; DHQ 100 μM (line not labelled, concentration inferred)",3.576E+07
same,Peak max,[2]; DHQ 1 μM (inferred),2.430E+07 cpm
same,Slope max,[2]; DHQ 1 μM (inferred),9.790E+06 cpm
same,T. Slope max,[2]; DHQ 1 μM (inferred),1.78
same,T. half (rise),[2]; DHQ 1 μM (inferred),2.44
same,T. max (peak),[2]; DHQ 1 μM (inferred),11.77
same,Peak max,[2]; DHQ 10 μM (inferred),1.134E+07 cpm
same,Slope max,[2]; DHQ 10 μM (inferred),4.380E+06 cpm
same,T. Slope max,[2]; DHQ 10 μM (inferred),1.55
same,T. half (rise),[2]; DHQ 10 μM (inferred),2.22
same,T. max (peak),[2]; DHQ 10 μM (inferred),9.55
same,Peak max,[2]; DHQ 100 μM (inferred),2.260E+06 cpm
same,Slope max,[2]; DHQ 100 μM (inferred),1.033E+06 cpm
same,T. Slope max,[2]; DHQ 100 μM (inferred),4.66
same,T. half (rise),[2]; DHQ 100 μM (inferred),4.89
same,T. max (peak),[2]; DHQ 100 μM (inferred),11.55
same,cytochrome c reduction (anion superoxide production),"[3]; +PMA, DHQ 1 μM",0.110 dDO/min
same,cytochrome c reduction (anion superoxide production),"[3]; +PMA, DHQ 10 μM",0.070 dDO/min
same,cytochrome c reduction (anion superoxide production),"[3]; +PMA, DHQ 100 μM",0.021 dDO/min
same,cytochrome c reduction (anion superoxide production),"[3]; +fMLP, DHQ 1 μM",0.144 dDO/min
same,cytochrome c reduction (anion superoxide production),"[3]; +fMLP, DHQ 10 μM",0.105 dDO/min
same,cytochrome c reduction (anion superoxide production),"[3]; +fMLP, DHQ 100 μM",0.040 dDO/min
same,cytochrome c reduction (anion superoxide production),"[3]; resting neutrophils, DHQ 1 μM",0.000 dDO/min
same,cytochrome c reduction (anion superoxide production),"[3]; resting neutrophils, DHQ 10 μM",0.036 dDO/min
same,cytochrome c reduction (anion superoxide production),"[3]; resting neutrophils, DHQ 100 μM",0.086 dDO/min
same,oxygen consumption of polymorphonuclear neutrophils,[4],strongly inhibits
same,inhibition at 1 µM,"[5]; Neutrophil, neutrophils activated by fMLP, DHQ 1 μM",~80%
same,"Integral (total chemiluminescence counts, total ROS production)","[5]; fMLP 10^−6 M, DHQ 1 μM (line not labelled, concentration inferred)",3.838E+08
same,"Integral (total chemiluminescence counts, total ROS production)","[5]; fMLP 10^−6 M, DHQ 10 μM (line not labelled, concentration inferred)",1.867E+08
same,"Integral (total chemiluminescence counts, total ROS production)","[5]; fMLP 10^−6 M, DHQ 100 μM (line not labelled, concentration inferred)",4.329E+07
same,Peak max,[5]; [7],3.731E+07 cpm
same,Slope max,[5]; [7],2.492E+07 cpm
same,T. Slope max,[5]; [7],0.22
same,T. half (fall),[5]; [7],3.78
same,T. max (peak),[5]; [7],1.33
same,Peak max,[5]; [8],1.770E+07 cpm
same,Slope max,[5]; [8],1.206E+07 cpm
same,T. Slope max,[5]; [8],0.22
same,T. half (fall),[5]; [8],3.55
same,T. max (peak),[5]; [8],1.33
same,Peak max,[5]; [9],2.533E+06 cpm
same,Slope max,[5]; [9],1.464E+06 cpm
same,T. Slope max,[5]; [9],2.00
same,T. half (rise),[5]; [9],1.55
same,T. max (peak),[5]; [9],6.00
same,cell viability of NIH-3T3 cells (extent of MTT reduced),[6],reduced
